Laboratory results: paper PMC8621570, “Mechanistic Studies of Antibiotic Adjuvants Reducing Kidney’s Bacterial Loads upon Systemic Monotherapy” (Pharmaceutics, 2021)

Assay: Blood circulating concentrations (preliminary PK)
Format: in vivo, mouse
Settings: ICR mice, single S.C 12.5 mg/kg, LC-MS
Protocol: C14(ω5)OOc10O was subjected to preliminary pharmacokinetics (PK) analysis to determine its plasma concentrations or organ bio-distribution following S.C administration to non-neutropenic pathogen-free mice. OAC quantification was performed by LC-MS as follows: blood was drawn at various time intervals and plasma was separated by centrifugation (5000 RCF, 10 min). Organs were excised and homogenized. Then, OAC was extracted from both plasma and organ homogenates by incubation with 50% acetonitrile: 50% methanol at room temperature with shaking for 30 min, and subsequent centrifugation (5000 RCF, 10 min). Supernatants were diluted two-fold in distilled water and analyzed by LC-MS (ULC ultimate 3000 DIONEX, MS BRUKER Maxis impact). Quantification was based on standard calibration curves, prepared by spiking fresh mice plasma (for PK) or water (for organ bio-distribution) with various amounts of the tested OAC (final concentrations from 2.5 to 50 µg/mL) and subjected to an identical procedure as described above.
Figure 10 Systemic efficacy studies using mouse infection models. (a,b) Data points represent colony forming unit (CFU) counts harvested from infected mice (8 and 10 mice per group, respectively). Panel (a) depicts results of the thigh infection model where mice were inoculated intramuscularly with E. coli 25922 (upper dashed line represents the inoculum) and treated subcutaneously with C14(ω5)OOc10O (12.5 mg/kg) at 1 and 3 h post-infection. Panel (b) depicts results of the urinary tract infection model where mice were infected with E. coli UPEC CFT073 by intra-urethral injection and treated subcutaneously with C14(ω5)OOc10O (12.5 mg/kg) at 1 and 6 h post-infection. Solid circles denote mice that died before the experimental endpoint. […] Panels (c,d) show the evolution of C14(ω5)OOc10O concentrations in mouse plasma (c) or in organs (d) after single subcutaneous administration (12.5 mg/kg) to ICR mice (data in c are from two mice/time points except for 60 and 180 that were 8 and 3, respectively) as determined by liquid chromatography–mass spectrometry. […]

In the case of `CCCCC=CCCCCCCCC(=O)N[C@@H](CCCN)C(=O)N[C@@H](CCCN)C(=O)NCCCCCCCCCC(=O)N[C@@H](CCCN)C(N)=O` [C14(ω5)OOc10O], the “Time for which potentiating plasma concentrations (>2.5 µM) were maintained after the maximum” value is reported as “at least 3 h”, the Cmax (mouse, plasma, sc, mean ± SD, read-out: Maximal plasma concentration) is reported as 8.7 ± 2.3 µM and the Tmax (mouse, plasma, sc, read-out: Time to maximal plasma concentration) is reported as roughly 1 h.
